The values below come from patent US20250034212A1, “PEPTIDE” (PEPTIDREAM INC., priority 2021, published 2025).

For experiment [1], the target named is T1, recombinant human TGF-β1 (Homo sapiens, UniProt P01137).
T1 construct: purchased R&D systems
Briefly: SBE reporter assay in SBE reporter-HEK293 cells, TGF-β1 stimulation. The format is cell-based. To be noted: for inhibition at 62 pM: peptide 0.062 nM; for inhibition at 0.000185 µM: peptide 0.185 nM; for inhibition at 0.00056 µM: peptide 0.56 nM; for inhibition at 0.0017 µM: peptide 1.7 nM; for inhibition at 0.005 µM: peptide 5.0 nM; for inhibition at 0.015 µM: peptide 15.0 nM. The method in brief:
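SBE luciferase reporter HEK293 cells in 0.5% FBS medium, preincubated 20 min with peptide, then stimulated 18 h with 0.13 nM recombinant human TGF-β1. Luminescence read; inhibition scaled with maximal TGF-β signal as 0% and unstimulated as 100%.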
A general note: A reporter such as luciferase makes a cellular process visible.

The target in experiment [2] is T1, recombinant human TGF-β1. Put plainly: SPR intermolecular interaction test, TGF-β1 immobilized on CM3 sensor chip (Biacore T200). Format: binding. The conditions noted are these: for Kd: Single Cycle Kinetics, human TGF-β1. As to the method:
In this Example, (1) the activity of binding to TGF-β for various peptides consisting of the amino acid sequences set forth in SEQ ID NOs: 2-33 synthesized in Examples 1 to 5 and 7 was evaluated. (2) The activity and selectivity of binding of the peptide consisting of the amino acid sequence set forth in SEQ ID NO: 13 synthesized in Example 2 against two isoforms of TGF-β (TGF-β1 and β2) were checked. For this purpose, the intermolecular interaction of each peptide against TGF-β was tested by surface plasmon resonance (SPR) in the method described below. Specific test methods are described below.
A CM3 sensor chip (Global Life Science Technologies Japan Co., Ltd.) was inserted into a BiacoreT200 (Global Life Science Technologies Japan Co., Ltd.). Three priming runs were performed using running buffer: HBS-EP+ (Global Life Science Technologies Japan Co., Ltd.). The system was then equilibrated at a flow rate of 30 μL/min.
Subsequently, 50 μL of 60 mM EDC solution (Global Life Science Technologies Japan Co., Ltd.) and 50 μL of 650 mM NHS solution (Global Life Science Technologies Japan Co., Ltd.) were mixed. Next, the reaction was carried out at a flow rate of 10 μL/min for 420 seconds. Then, 150 μL of 0.2 μM TGF-β solution diluted in 10 mM acetic acid solution (pH 5.0) was prepared and reacted at a flow rate of 10 μL/min for 420 seconds to immobilize TGF-β on the CM3 sensor chip. TGF-β was human-derived TGF-β1 or β2 (recombinant human TGF-β1, 2) and was obtained from R&D systems. After immobilization, capping was performed by reacting with 1.0 M ethanolamine aqueous solution (Global Life Science Technologies Japan Co., Ltd.) at a flow rate of […] for 420 seconds.
A liquid prepared by dissolving each peptide at 10 mM in DMSO solution was diluted with running buffer to prepare a peptide-dissolved solution at a final concentration of 10 μM. Subsequently, 50 nM, 25 nM, 12.5 nM, 5 nM, and 2.5 nM peptide solutions were prepared. Using the above samples, the kinetics of each peptide against TGF-β was obtained by SPR measurement.
The kinetics evaluation model was Single Cycle Kinetics, and curve fitting was performed using Biacore T200 Evaluation Software Version 3.0 (Global Life Science Technologies Japan Co., Ltd.). The binding of various peptides to TGF-β was evaluated by performing least-squares curve fitting on the obtained sensorgram to calculate the KD value.

Starred links: 1 amine or outer side, 2 acyl side, 3 side chain; linkers in the order of their positions; H or OH if unused. Positions of bridges follow the written chain, without caps; N, C: chain ends. Non-standard residues stand in square brackets, D forms with d. Residues, ends and D or L forms follow the SMILES beside them. Groups on a side chain read outwards from the residue. *: point of attachment. CH3O(CH2CH2O)7C2H4CO = COCCOCCOCCOCCOCCOCCOCCOCCC(=O)*; Meglumine = CN(C[C@H](O)[C@@H](O)[C@H](O)[C@H](O)CO)*; Piperazinyl(4-CH2COOH) = O=C(O)CN1CCN(*)CC1; 1Nal = N[C@@H](Cc1cccc2ccccc12)C(=O)O; Gly(NCH2CH2Ph) = O=C(O)CNCCc1ccccc1; 4Pal = N[C@@H](Cc1ccncc1)C(=O)O; CO = O=C([*:1])[*:2]

T1 sequence (P01137 279-390 limits assumed): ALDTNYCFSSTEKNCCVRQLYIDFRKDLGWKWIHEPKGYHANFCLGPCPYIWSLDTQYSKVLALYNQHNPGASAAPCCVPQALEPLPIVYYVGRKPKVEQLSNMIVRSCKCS

With `CC(C)[C@@H]1NC(=O)CN(CCc2ccccc2)C(=O)[C@H](CCCCNC(=O)N(C)C[C@H](O)[C@@H](O)[C@H](O)[C@H](O)CO)NC(=O)[C@H](CC(=O)O)NC(=O)[C@H](Cc2ccncc2)NC(=O)[C@H](C(C)C)NC(=O)[C@H](CC(N)=O)NC(=O)[C@H](CCCCNC(=O)N(C)C[C@H](O)[C@@H](O)[C@H](O)[C@H](O)CO)NC(=O)[C@H](C(C)C)NC(=O)[C@H](Cc2cccc3ccccc23)NC(=O)[C@H](Cc2ccccc2)NC(=O)CSC[C@@H](C(=O)NCC(N)=O)NC(=O)[C@H](CCC(=O)O)NC(=O)[C@H](Cc2c[nH]cn2)NC(=O)[C@H](Cc2ccc(O)cc2)NC(=O)[C@H](Cc2cccc3ccccc23)NC1=O` [TGFb1_030] ({CH2CO}-F[1Nal]VK([CO-Meglumine])NV[4Pal]DK([CO-Meglumine])[Gly(NCH2CH2Ph)]V[1Nal]YHECG-NH2; thioether N-16), at recombinant human TGF-β1 [1] (TGF-β1 0.13 nM, 18 hours), the inhibition at 62 pM worked out at 10.9%, the inhibition at 0.000185 µM was determined as 14.3%, the inhibition at 0.00056 µM worked out at 29.9% and the inhibition at 0.0017 µM worked out at 52.5%. Moreover, at recombinant human TGF-β1 [1] (TGF-β1 0.13 nM, 18 hours), the inhibition at 0.005 µM was found to be 80.8% and the inhibition at 0.015 µM is 95.2%. The Kd on recombinant human TGF-β1 [2] was found to be 1.13 nM.

Take `CC(C)[C@@H]1NC(=O)CN(CCc2ccccc2)C(=O)[C@H](CC(=O)O)NC(=O)[C@H](CC(=O)O)NC(=O)[C@H](Cc2ccncc2)NC(=O)[C@H](C(C)C)NC(=O)[C@H](CC(N)=O)NC(=O)[C@H](CCCCNC(=O)N2CCN(CC(=O)O)CC2)NC(=O)[C@H](C(C)C)NC(=O)[C@H](Cc2cccc3ccccc23)NC(=O)[C@H](Cc2ccccc2)NC(=O)CSC[C@@H](C(=O)NCC(N)=O)NC(=O)[C@H](CCCCNC(=O)N2CCN(CC(=O)O)CC2)NC(=O)[C@H](Cc2c[nH]cn2)NC(=O)[C@H](Cc2ccc(O)cc2)NC(=O)[C@H](Cc2cccc3ccccc23)NC1=O` [TGFb1_019] ({CH2CO}-F[1Nal]VK([CO-Piperazinyl(4-CH2COOH)])NV[4Pal]DD[Gly(NCH2CH2Ph)]V[1Nal]YHK([CO-Piperazinyl(4-CH2COOH)])CG-NH2; thioether N-16): at recombinant human TGF-β1 [1] (TGF-β1 0.13 nM, 18 hours), the inhibition at 62 pM is 5.21%, the inhibition at 0.000185 µM was 11.3%, the inhibition at 0.00056 µM worked out at 30.2% and the inhibition at 0.0017 µM is 61.6%. Also, on recombinant human TGF-β1 [1] (TGF-β1 0.13 nM, 18 hours), the inhibition at 0.005 µM was 87.8% and the inhibition at 0.015 µM is 96.4%. Besides, at recombinant human TGF-β1 [2], the Kd is 1.41 nM.

As to `COCCOCCOCCOCCOCCOCCOCCOCCC(=O)NCCCC[C@H](NC(=O)CNC(=O)[C@@H]1CSCC(=O)N[C@@H](Cc2ccccc2)C(=O)N[C@@H](Cc2cccc3ccccc23)C(=O)N[C@@H](C(C)C)C(=O)N[C@@H](C(C)C)C(=O)N[C@@H](CC(N)=O)C(=O)N[C@@H](C(C)C)C(=O)N[C@@H](Cc2ccncc2)C(=O)N[C@@H](CC(=O)O)C(=O)N[C@@H](CC(=O)O)C(=O)N(CCc2ccccc2)CC(=O)N[C@@H](C(C)C)C(=O)N[C@@H](Cc2cccc3ccccc23)C(=O)N[C@@H](Cc2ccc(O)cc2)C(=O)N[C@@H](Cc2c[nH]cn2)C(=O)N[C@@H](CCCCNC(=O)N2CCN(CC(=O)O)CC2)C(=O)N1)C(N)=O` [TGFb1_031] ({CH2CO}-F[1Nal]VVNV[4Pal]DD[Gly(NCH2CH2Ph)]V[1Nal]YHK([CO-Piperazinyl(4-CH2COOH)])CGK(CH3O(CH2CH2O)7C2H4CO)-NH2; thioether N-16), at recombinant human TGF-β1 [1] (TGF-β1 0.13 nM, 18 hours), the inhibition at 62 pM was found to be 9.29%, the inhibition at 0.000185 µM was determined as 20.1%, the inhibition at 0.00056 µM amounted to 51.9% and the inhibition at 0.0017 µM came to 84.9%. On recombinant human TGF-β1 [1] (TGF-β1 0.13 nM, 18 hours), the inhibition at 0.005 µM worked out at 96.7% and the inhibition at 0.015 µM turned out to be 99.1%. Besides, at recombinant human TGF-β1 [2], the Kd amounted to 0.91 nM.

On to `CC(C)[C@@H]1NC(=O)CN(CCc2ccccc2)C(=O)[C@H](CCCCNC(=O)N2CCN(CC(=O)O)CC2)NC(=O)[C@H](CC(=O)O)NC(=O)[C@H](Cc2ccncc2)NC(=O)[C@H](C(C)C)NC(=O)[C@H](CC(N)=O)NC(=O)[C@H](CCCCNC(=O)N(C)C[C@H](O)[C@@H](O)[C@H](O)[C@H](O)CO)NC(=O)[C@H](C(C)C)NC(=O)[C@H](Cc2cccc3ccccc23)NC(=O)[C@H](Cc2ccccc2)NC(=O)CSC[C@@H](C(=O)NCC(N)=O)NC(=O)[C@H](CCCCNC(=O)N2CCN(CC(=O)O)CC2)NC(=O)[C@H](Cc2c[nH]cn2)NC(=O)[C@H](Cc2ccc(O)cc2)NC(=O)[C@H](Cc2cccc3ccccc23)NC1=O` [TGFb1_025] ({CH2CO}-F[1Nal]VK([CO-Meglumine])NV[4Pal]DK([CO-Piperazinyl(4-CH2COOH)])[Gly(NCH2CH2Ph)]V[1Nal]YHK([CO-Piperazinyl(4-CH2COOH)])CG-NH2; thioether N-16), for which, at recombinant human TGF-β1 [1] (TGF-β1 0.13 nM, 18 hours), the inhibition at 62 pM came out at 4.81%, the inhibition at 0.000185 µM came to 18.4%, the inhibition at 0.00056 µM is 43.3% and the inhibition at 0.0017 µM worked out at 77.5%. On recombinant human TGF-β1 [1] (TGF-β1 0.13 nM, 18 hours), the inhibition at 0.005 µM was determined as 94.7% and the inhibition at 0.015 µM was found to be 99.4%. The Kd on recombinant human TGF-β1 [2] came out at 0.83 nM.

For the compound `CC(C)[C@@H]1NC(=O)CN(CCc2ccccc2)C(=O)[C@H](CC(=O)O)NC(=O)[C@H](CC(=O)O)NC(=O)[C@H](Cc2ccc(O)cc2)NC(=O)[C@H](C(C)C)NC(=O)[C@H](CC(N)=O)NC(=O)[C@H](C(C)C)NC(=O)[C@H](C(C)C)NC(=O)[C@H](Cc2cccc3ccccc23)NC(=O)[C@H](Cc2ccccc2)NC(=O)CSC[C@@H](C(=O)NCC(N)=O)NC(=O)[C@H](C(C)C)NC(=O)[C@H](Cc2c[nH]cn2)NC(=O)[C@H](Cc2ccc(O)cc2)NC(=O)[C@H](Cc2cccc3ccccc23)NC1=O` [TGFb1_001, F-Nal1-V-V-N-V-Y-D-D-PeG-V-Nal1-Y-H-V-C-G] ({CH2CO}-F[1Nal]VVNVYDD[Gly(NCH2CH2Ph)]V[1Nal]YHVCG-NH2; thioether N-16), the “TGF-β1 antagonist / inhibitory activity (in words)” value on recombinant human TGF-β1 [1] (SBE reporter assay, FIG. 1 and Tables 2 and 3) is on record as “TGF-β antagonist activity”. Further, on recombinant human TGF-β1 [1] (peptide 0.075 nM, TGF-β1 0.13 nM, 18 hours), the inhibition at 75 pM stood at 19.7%. Also, the inhibition at 0.00075 µM at recombinant human TGF-β1 [1] (peptide 0.75 nM, TGF-β1 0.13 nM, 18 hours) was determined as 69.7%. In addition, the inhibition at 0.0075 µM at recombinant human TGF-β1 [1] (peptide 7.5 nM, TGF-β1 0.13 nM, 18 hours) was 98.1%. On recombinant human TGF-β1 [1] (peptide 75.0 nM, TGF-β1 0.13 nM, 18 hours), the inhibition at 0.075 µM was found to be 101%. In addition, the “ability of binding to TGF-β1 (in words)” value on recombinant human TGF-β1 [2] was “confirmed to have TGF-β binding activity”.

Usually inhibition stands for the change of the read-out against control, counted positive when it falls. Broadly, the Kd is the free concentration of one partner at which half of the binding sites on the other are occupied at equilibrium, for simple one-to-one binding.
